#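 In this assay, cells in 96-well plates receive the compound at five concentrations for 48 hours. Endpoints are linearly interpolated between the surrounding concentrations. Abbreviation: GI50, concentration required for 50% inhibition of growth.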 Calls of active or inactive are those of the source. Cut-off read from the data, not from the text of the source: active = GI50 up to about 1.1 µM and inactive = higher.
# Key:
# Assay in all cases: inhibition of tumour cell growth, NCI panel, 48 h
# CAKI-1 = test system: CAKI-1
# COLO 205 = test system: COLO 205
# HL-60 = test system: HL-60
# HOP-62 = test system: HOP-62
# HOP-92 = test system: HOP-92
# IGROV-1 = test system: IGROV-1
# K562 = test system: K562
# LOX IMVI = test system: LOX IMVI
# NCI-H226 = test system: NCI-H226
# NCI-H522 = test system: NCI-H522
# OVCAR-5 = test system: OVCAR-5
# RXF 393 = test system: RXF 393
# SK-MEL-28 = test system: SK-MEL-28
# SK-MEL-2 = test system: SK-MEL-2
# SK-MEL-5 = test system: SK-MEL-5
# SN12C = test system: SN12C
# SW-620 = test system: SW-620
# U-251 = test system: U-251
# UACC-62 = test system: UACC-62
# HCC 2998 = test system: HCC 2998
Compound,GI50 (CAKI-1),GI50 (COLO 205),GI50 (HL-60),GI50 (HOP-62),GI50 (HOP-92),GI50 (IGROV-1),GI50 (K562),GI50 (LOX IMVI),GI50 (NCI-H226),GI50 (NCI-H522),GI50 (OVCAR-5),GI50 (RXF 393),GI50 (SK-MEL-28),GI50 (SK-MEL-2),GI50 (SK-MEL-5),GI50 (SN12C),GI50 (SW-620),GI50 (U-251),GI50 (UACC-62),GI50 (HCC 2998)
O/N=C\c1cc(O)c(O)c(/C=N/O)c1,28.6 µM (inactive),34.4 µM (inactive),14.1 µM (inactive),29.4 µM (inactive),49.9 µM (inactive),41.4 µM (inactive),36 µM (inactive),47.8 µM (inactive),32.9 µM (inactive),8.73 µM (inactive),96.2 µM (inactive),25.6 µM (inactive),> 100 µM (inactive),67.9 µM (inactive),33.2 µM (inactive),27.2 µM (inactive),39.9 µM (inactive),39 µM (inactive),38.5 µM (inactive),
Cc1cc(O)nc(NN2C(Cl)C(=O)C2c2cccc(Cl)c2)n1 (stereo not drawn),,> 10 µM (inactive),16 µM (inactive),27.1 µM (inactive),20.6 µM (inactive),14 µM (inactive),17.6 µM (inactive),14.4 µM (inactive),,,58.2 µM (inactive),8.18 µM (inactive),22.4 µM (inactive),16.7 µM (inactive),18.4 µM (inactive),20.5 µM (inactive),38 µM (inactive),30.5 µM (inactive),23.1 µM (inactive),31.2 µM (inactive)
COc1cc(C2S/C(=C/c3ccccc3)C(=O)N2c2ccccc2Cl)cc(OC)c1OC (stereo not drawn),32.6 µM (inactive),33.3 µM (inactive),,31.3 µM (inactive),14.3 µM (inactive),,,18.7 µM (inactive),> 100 µM (inactive),12.4 µM (inactive),42.5 µM (inactive),9.53 µM (inactive),42.2 µM (inactive),16 µM (inactive),20.7 µM (inactive),21.4 µM (inactive),,22.1 µM (inactive),20 µM (inactive),33 µM (inactive)
Nc1nc(Cl)nc2c1ncn2C1CC(O)C(CO)O1 (stereo not drawn),0.665 µM (active),33.4 µM (inactive),0.0601 µM (active),0.33 µM (active),1.3 µM (inactive),81.8 µM (inactive),13.4 µM (inactive),3.62 µM (inactive),16.7 µM (inactive),25.5 µM (inactive),1.78 µM (inactive),24.9 µM (inactive),43.3 µM (inactive),> 100 µM (inactive),5.12 µM (inactive),0.738 µM (active),23 µM (inactive),10.4 µM (inactive),0.463 µM (active),19.3 µM (inactive)
C/C(CC(=O)Nc1ccccc1)=N\NC(N)=S,,> 100 µM (inactive),> 100 µM (inactive),> 100 µM (inactive),> 100 µM (inactive),> 100 µM (inactive),> 100 µM (inactive),> 100 µM (inactive),> 100 µM (inactive),> 100 µM (inactive),> 100 µM (inactive),> 100 µM (inactive),> 100 µM (inactive),> 100 µM (inactive),> 100 µM (inactive),,> 100 µM (inactive),> 100 µM (inactive),> 100 µM (inactive),> 100 µM (inactive)
CC(C)(C)c1ccc2c(c1)OP1(Oc3c(Cl)cc(Cl)c4cccnc34)(O2)Oc2ccc(C(C)(C)C)cc2O1,3.78 µM (inactive),13.4 µM (inactive),2.65 µM (inactive),5.01 µM (inactive),2.4 µM (inactive),8.55 µM (inactive),3.94 µM (inactive),5.55 µM (inactive),8.97 µM (inactive),2.9 µM (inactive),13.7 µM (inactive),13.3 µM (inactive),11.3 µM (inactive),10.2 µM (inactive),8.51 µM (inactive),11 µM (inactive),6.43 µM (inactive),4.63 µM (inactive),5.37 µM (inactive),11.3 µM (inactive)
COc1ccc(NC(C)=O)cc1N1C(=O)/C(=C\c2ccccc2)SC1c1cc(OC)c(OC)c(OC)c1 (stereo not drawn),34.7 µM (inactive),26.6 µM (inactive),26.8 µM (inactive),39.2 µM (inactive),14.6 µM (inactive),25.9 µM (inactive),33.7 µM (inactive),14.9 µM (inactive),24 µM (inactive),13.8 µM (inactive),,27 µM (inactive),80.7 µM (inactive),31.8 µM (inactive),12 µM (inactive),80.5 µM (inactive),40.4 µM (inactive),32.5 µM (inactive),30.4 µM (inactive),16.3 µM (inactive)
COC(=O)C(Cc1ccc2c(c1)OCO2)(NC(=O)c1ccccc1)P(=O)(OC)OC (stereo not drawn),> 100 µM (inactive),> 100 µM (inactive),> 100 µM (inactive),> 100 µM (inactive),> 100 µM (inactive),> 100 µM (inactive),> 100 µM (inactive),> 100 µM (inactive),> 100 µM (inactive),> 100 µM (inactive),> 100 µM (inactive),> 100 µM (inactive),> 100 µM (inactive),63.5 µM (inactive),> 100 µM (inactive),> 100 µM (inactive),> 100 µM (inactive),> 100 µM (inactive),> 100 µM (inactive),> 100 µM (inactive)
COc1ccc2nc(-n3c(/C=C/c4ccccc4O)nc4ccccc4c3=O)sc2c1,46 µM (inactive),> 100 µM (inactive),43.4 µM (inactive),> 100 µM (inactive),60.8 µM (inactive),39.6 µM (inactive),20.4 µM (inactive),69.5 µM (inactive),36 µM (inactive),58.1 µM (inactive),> 100 µM (inactive),71.6 µM (inactive),31.4 µM (inactive),88.3 µM (inactive),19.7 µM (inactive),,> 100 µM (inactive),> 100 µM (inactive),61.5 µM (inactive),> 100 µM (inactive)
COC(=O)Cc1c(/C=C/C(C)(C)n2cnc(CCN3C(=O)CCC3=O)c2)[nH]c2ccccc12,> 100 µM (inactive),> 100 µM (inactive),> 100 µM (inactive),,53.6 µM (inactive),> 100 µM (inactive),> 100 µM (inactive),> 100 µM (inactive),> 100 µM (inactive),43.4 µM (inactive),> 100 µM (inactive),36.3 µM (inactive),> 100 µM (inactive),> 100 µM (inactive),66.8 µM (inactive),> 100 µM (inactive),> 100 µM (inactive),> 100 µM (inactive),14.2 µM (inactive),
CCCCCCCCCCCCSC(=S)c1c(C)[nH]n(CCCCCCCCCCCC)c1=O,> 100 µM (inactive),> 100 µM (inactive),66.7 µM (inactive),> 100 µM (inactive),,> 100 µM (inactive),> 100 µM (inactive),> 100 µM (inactive),> 100 µM (inactive),99.5 µM (inactive),> 100 µM (inactive),,> 100 µM (inactive),78.2 µM (inactive),> 100 µM (inactive),77.1 µM (inactive),77.6 µM (inactive),> 100 µM (inactive),> 100 µM (inactive),> 100 µM (inactive)
O=c1ccc2ccc(CBr)cc2o1,1.55 µM (inactive),,1.76 µM (inactive),17 µM (inactive),1.68 µM (inactive),3.57 µM (inactive),2.18 µM (inactive),1.5 µM (inactive),10.7 µM (inactive),1.26 µM (inactive),1.73 µM (inactive),1.94 µM (inactive),13.6 µM (inactive),11.4 µM (inactive),2.79 µM (inactive),2.69 µM (inactive),1.72 µM (inactive),1.81 µM (inactive),10.8 µM (inactive),3.34 µM (inactive)
O=Cc1ccccc1CCn1c(=O)c2cc3c(=O)n(CCc4ccccc4C=O)c(=O)c3cc2c1=O,,,> 100 µM (inactive),,,> 100 µM (inactive),> 100 µM (inactive),> 100 µM (inactive),> 100 µM (inactive),> 100 µM (inactive),,> 100 µM (inactive),> 100 µM (inactive),> 100 µM (inactive),> 100 µM (inactive),> 100 µM (inactive),> 100 µM (inactive),> 100 µM (inactive),> 100 µM (inactive),
C=C1CC(Cn2cc(Br)c(=O)[nH]c2=O)(c2ccc(Br)cc2)OC1=O (stereo not drawn),2.38 µM (inactive),1.53 µM (inactive),0.621 µM (active),14.5 µM (inactive),1.33 µM (inactive),1.89 µM (inactive),0.644 µM (active),1.58 µM (inactive),13.4 µM (inactive),1.6 µM (inactive),6.38 µM (inactive),,7.19 µM (inactive),1.72 µM (inactive),3.01 µM (inactive),6.81 µM (inactive),1.49 µM (inactive),13.3 µM (inactive),2.4 µM (inactive),3.48 µM (inactive)
Cc1ccc(S(=O)(=O)OCCN(CCOS(=O)(=O)c2ccc(C)cc2)c2ccc(C=O)cc2)cc1,21.1 µM (inactive),28.1 µM (inactive),42.3 µM (inactive),,26.1 µM (inactive),36.1 µM (inactive),38.4 µM (inactive),38.7 µM (inactive),,10.8 µM (inactive),25.3 µM (inactive),15.7 µM (inactive),31.4 µM (inactive),16.5 µM (inactive),32.9 µM (inactive),,29.6 µM (inactive),24.3 µM (inactive),20 µM (inactive),28.7 µM (inactive)

# Source: ChEMBL document CHEMBL1201862, “PubChem BioAssay data set” (2004)
